Data published in patent US20230072854A1, “PARAXANTHINE-BASED BIOACTIVE COMPOSITION AND METHOD OF USE THEREOF” (Ingenious Ingredients, LP, priority 2020, published 2023).

Columns and labels:
volunteers [1] = assay: Psychomotor vigilance task test, double blind crossover vs placebo; assay type: in vivo, human; conditions: 200 mg
Description: (§1) In a double blind, randomized, crossover, and repeated measures manner, 13 volunteers (10 male, 3 female, average age 24±5 years, average body weight 72.91±19.30 kg, average height 169.96±11.84 cm, average BMI 24.80±3.71 kg/m^2) participated in this study. Participants limited ingestion of caffeine and other stimulants to normal use for 48-hours, fasted for 8-hours and reported to the lab and completed 4 different cognitive function tests to assess short-term attention and inhibitory control (Go-No Go Test), sustained attention (Vigilance Task Test), working memory (Sternberg Task Test) and cognitive flexibility (Berg-Washington Card Sorting Test). Once completed, the participants ingested either a placebo or 200 mg of paraxanthine (WGI, TX, USA) with 8 ounces of water. Participants repeated cognitive function tests 1, 2, 3, 4, 5, and 6 hours after ingestion of the supplement. After one-week participants repeated the experiment while consuming the other treatment.
(§2) Data were analyzed by a General Linear Model multivariate and univariate analyses with repeated measures using body weight as a covariate. Data are expressed as means±standard deviations for the placebo (PLA) and Paraxanthine (PrX). Greenhouse-Geisser univariate p-levels are listed for time (T), weight×time (W×T) and group×time (G×T) interactions effects. Pairwise comparison is indicated by the following superscripts: †=[…] difference from baseline value; *=[…] difference from baseline; a=[…] difference between groups; b=[…] difference between groups. Eta2 vaules of […] are considered small, […] medium, and >0.14 are considered large.
The psychomotor vigilance task test is a sustained attention, reaction timed task that measures the speed with which participants respond to a visual stimulus. Lower Reaction time, especially maintained throughout this many tests represents better ability to sustain attention.

Toxicity, LD50 = conditions: in vivo
volunteers [2] = assay: Berg-Washington Card Sorting Task Test (BCST), double blind crossover vs placebo; assay type: in vivo, human; conditions: 200 mg
Description: as §1, §2
Berg-Washington Card Sorting Task Test is a test of basic cognitive flexibility or set-shifting between old/new rule changes. The test involves reasoning, learning, executive control and attention shifting. It is particularly sensitive to the inability to shift set. Less errors means subjects were able to both recognize and ‘shift’ to a new rule with higher ability. […]

[3] = Mean (SEM) over all hours, listed as PrX

Structure (SMILES): Cn1c(=O)[nH]c2ncn(C)c2c1=O [paraxanthine, 1,7-dimethylxanthine]
- Trial #2 reaction time (FIG. 11) (volunteers [1]): maintained reaction time
- Trial #10 reaction time (FIG. 12) (volunteers [1]): no significant time or between treatment differences
- effect on average reaction times in the vigilance task test (volunteers [1]): no effect
- Reaction Time (milliseconds) Average (volunteers [1]; Mean (SEM) over all hours): 2,550 milliseconds
- Reaction Time (milliseconds) Trial #2 (volunteers [1]; Mean (SEM) over all hours): 2,659 milliseconds
- Reaction Time (milliseconds) Trial #10 (volunteers [1]; Mean (SEM) over all hours): 2,639 milliseconds
- Reaction Time (milliseconds) Trial #20 (volunteers [1]; Mean (SEM) over all hours): 2,590 milliseconds
- Reaction Time (milliseconds) Average (volunteers [1]; hour 0 (before ingestion)): 2,546 milliseconds
- Reaction Time (milliseconds) Trial #2 (volunteers [1]; hour 0 (before ingestion)): 2,601 milliseconds
- Reaction Time (milliseconds) Trial #10 (volunteers [1]; hour 0 (before ingestion)): 2,607 milliseconds
- Reaction Time (milliseconds) Trial #20 (volunteers [1]; hour 0 (before ingestion)): 2,680 milliseconds
- Reaction Time (milliseconds) Average (volunteers [1]; hour 1 after ingestion): 2,552 milliseconds
- Reaction Time (milliseconds) Trial #2 (volunteers [1]; hour 1 after ingestion): 2,602 milliseconds
- Reaction Time (milliseconds) Trial #10 (volunteers [1]; hour 1 after ingestion): 2,418 milliseconds
- Reaction Time (milliseconds) Trial #20 (volunteers [1]; hour 1 after ingestion): 2,458 milliseconds
- Reaction Time (milliseconds) Average (volunteers [1]; hour 2 after ingestion): 2,508 milliseconds
- Reaction Time (milliseconds) Trial #2 (volunteers [1]; hour 2 after ingestion): 3,005 milliseconds
- Reaction Time (milliseconds) Trial #10 (volunteers [1]; hour 2 after ingestion): 2,651 milliseconds
- Reaction Time (milliseconds) Trial #20 (volunteers [1]; hour 2 after ingestion): 2,220 milliseconds
- Reaction Time (milliseconds) Average (volunteers [1]; hour 3 after ingestion): 2,559 milliseconds
- Reaction Time (milliseconds) Trial #2 (volunteers [1]; hour 3 after ingestion): 2,591 milliseconds
- Reaction Time (milliseconds) Trial #10 (volunteers [1]; hour 3 after ingestion): 2,788 milliseconds
- Reaction Time (milliseconds) Trial #20 (volunteers [1]; hour 3 after ingestion): 2,445 milliseconds
- Reaction Time (milliseconds) Average (volunteers [1]; hour 4 after ingestion): 2,538 milliseconds
- Reaction Time (milliseconds) Trial #2 (volunteers [1]; hour 4 after ingestion): 3,005 milliseconds
- Reaction Time (milliseconds) Trial #10 (volunteers [1]; hour 4 after ingestion): 2,412 milliseconds
- Reaction Time (milliseconds) Trial #20 (volunteers [1]; hour 4 after ingestion): 2,792 milliseconds
- Reaction Time (milliseconds) Average (volunteers [1]; hour 5 after ingestion): 2,570 milliseconds
- Reaction Time (milliseconds) Trial #2 (volunteers [1]; hour 5 after ingestion): 2,441 milliseconds
- Reaction Time (milliseconds) Trial #10 (volunteers [1]; hour 5 after ingestion): 2,783 milliseconds
- Reaction Time (milliseconds) Trial #20 (volunteers [1]; hour 5 after ingestion): 2,544 milliseconds
- Reaction Time (milliseconds) Average (volunteers [1]; hour 6 after ingestion): 2,577 milliseconds
- Reaction Time (milliseconds) Trial #2 (volunteers [1]; hour 6 after ingestion): 2,360 milliseconds
- Reaction Time (milliseconds) Trial #10 (volunteers [1]; hour 6 after ingestion): 2,813 milliseconds
- Reaction Time (milliseconds) Trial #20 (volunteers [1]; hour 6 after ingestion): 3,005 milliseconds
- LD50 (Toxicity, LD50): 1600 mg/kg
- number of correct answers in BCST, in words (volunteers [2]): significantly increased
- number of errors in BCST, in words (volunteers [2]): reducing the number of errors
- perseverative errors PEBL (FIG. 3) (volunteers [2]): no significant time or between treatment effects
- BCST Correct Response (volunteers [2]; Mean (SEM) over all hours): 97.3
- BCST Errors (volunteers [2]; Mean (SEM) over all hours): 18.0
- BCST Perseverative Errors (PAR rules) (volunteers [2]; Mean (SEM) over all hours): 8.7 ± 1.6
- BCST Perseverative Errors (PEBL) (volunteers [2]; Mean (SEM) over all hours): 12.7 ± 1.2
- BCST Correct Response (volunteers [2]; [3]): 102.5 ± 3.4
- BCST Errors (volunteers [2]; [3]): 18.0 ± 3.9
- change in correct answers after 6 hours (volunteers [2]; after 6 hours): +1.9
- change in errors after 6 hours (volunteers [2]; after 6 hours): −0.6
- correct responses adjusted for differences in baseline values (volunteers [2]; baseline-adjusted): 2.5
- errors adjusted for differences in baseline values (volunteers [2]; baseline-adjusted): −1.5
- less errors than placebo, adjusted for differences in baseline values (volunteers [2]; baseline-adjusted, vs placebo): 600%
- more correct responses than placebo, adjusted for differences in baseline values (volunteers [2]; baseline-adjusted, vs placebo): 150%
- BCST Correct Response (volunteers [2]; hour 0 (before ingestion)): 100.0 ± 6.6
- BCST Errors (volunteers [2]; hour 0 (before ingestion)): 19.5 ± 6.6
- BCST Perseverative Errors (PAR rules) (volunteers [2]; hour 0 (before ingestion)): 10.1 ± 4.6
- BCST Perseverative Errors (PEBL) (volunteers [2]; hour 0 (before ingestion)): 13.7 ± 5.0
- BCST Correct Response (volunteers [2]; hour 1 after ingestion): 101.4 ± 3.6
- BCST Errors (volunteers [2]; hour 1 after ingestion): 18.1 ± 4.3
- BCST Perseverative Errors (PAR rules) (volunteers [2]; hour 1 after ingestion): 8.8 ± 2.1
- BCST Perseverative Errors (PEBL) (volunteers [2]; hour 1 after ingestion): 12.5 ± 3.0
- BCST Correct Response (volunteers [2]; hour 2 after ingestion): 104.3
- BCST Errors (volunteers [2]; hour 2 after ingestion): 16.8
- BCST Perseverative Errors (PAR rules) (volunteers [2]; hour 2 after ingestion): 7.8
- BCST Perseverative Errors (PEBL) (volunteers [2]; hour 2 after ingestion): 12.3
- number of correct responses (FIG. 1) (volunteers [2]; hour 2 and 4 over baseline): significantly (p<0.5) increased
- BCST Correct Response (volunteers [2]; hour 3 after ingestion): 100.6 ± 5.8
- BCST Errors (volunteers [2]; hour 3 after ingestion): 17.0 ± 3.9
- BCST Perseverative Errors (PAR rules) (volunteers [2]; hour 3 after ingestion): 8.5 ± 2.9
- BCST Perseverative Errors (PEBL) (volunteers [2]; hour 3 after ingestion): 12.3 ± 3.2
- number of correct responses between groups (FIG. 1) (volunteers [2]; hour 4, between groups): showed a trend (p<0.1) between groups
- BCST Correct Response (volunteers [2]; hour 4 after ingestion): 106.4
- BCST Errors (volunteers [2]; hour 4 after ingestion): 19.0
- BCST Perseverative Errors (PAR rules) (volunteers [2]; hour 4 after ingestion): 8.6
- BCST Perseverative Errors (PEBL) (volunteers [2]; hour 4 after ingestion): 13.3
- BCST Correct Response (volunteers [2]; hour 5 after ingestion): 101.5 ± 4.0
- BCST Errors (volunteers [2]; hour 5 after ingestion): 18.5 ± 4.2
- BCST Perseverative Errors (PAR rules) (volunteers [2]; hour 5 after ingestion): 8.8 ± 3.6
- BCST Perseverative Errors (PEBL) (volunteers [2]; hour 5 after ingestion): 13.1 ± 3.6
- perseverative errors PAR between groups (FIG. 4) (volunteers [2]; hour 6, between groups): trend (p<0.1) towards less errors between groups
- BCST Correct Response (volunteers [2]; hour 6 after ingestion): 103.5
- BCST Errors (volunteers [2]; hour 6 after ingestion): 16.3
- BCST Perseverative Errors (PAR rules) (volunteers [2]; hour 6 after ingestion): 8.1
- BCST Perseverative Errors (PEBL) (volunteers [2]; hour 6 after ingestion): 11.7
- errors compared to baseline (FIG. 2) (volunteers [2]; hour 6 vs baseline): trend (p<0.1) towards less error
- less errors than placebo, overall (volunteers [2]; overall, vs placebo): 23.7%
- more correct responses than placebo, overall (volunteers [2]; overall, vs placebo): 5.3%
